This is an account of results in ChEMBL document CHEMBL4354883, “Design, Synthesis, and Biological Evaluation of HSP90 Inhibitor-SN38 Conjugates for Targeted Drug Accumulation” (J Med Chem, 2020).

A short description of data set [1]: Half life of compound in PBS buffer at pH 6.0 at 50 uM by HPLC analysis. Format: physicochemical.
Data set [2] is described as follows: Half life of compound in PBS buffer at pH 7.4 at 50 uM by HPLC analysis. Format: physicochemical.
The nature of data set [3]: Half life in human plasma at 25 uM by HPLC analysis. Format: ADME, cell-free.
Data set [4] in a line: Half life in mouse plasma at 25 uM by HPLC analysis. Format: ADME, cell-free.
For data set [5], the target named is Heat shock protein HSP 90-alpha (Homo sapiens, UniProt P07900). Put plainly: biochemical.
Description: Inhibition of recombinant human full length HSP90 alpha expressed in Escherichia coli cells after 1 hr by fluorescence polarization assay
Data set [6] deals with A549. The note with it: Homo sapiens, 0.2 uM.
Description: Downregulation of TOP1 expression in human A549 cells at 0.2 uM after 24 hrs by Western blot analysis
Data set [7] concerns HCT-116. Put plainly: Antiproliferative activity against human HCT116 cells assessed as reduction in cell viability after 72 hrs by SRB assay. Format: functional, cell-based. To be noted: HCT-116, 72 h. (Sulforhodamine B stains cellular protein and so reports cell mass.)
Data set [8] concerns CAPAN-1. Put plainly: Antiproliferative activity against human Capan1 cells assessed as reduction in cell viability after 72 hrs by SRB assay. Format: functional, cell-based. The note with it: CAPAN-1, 72 h.
Data set [9] deals with MIA PaCa-2. Put plainly: Antiproliferative activity against human MIAPaCa2 cells assessed as reduction in cell viability after 72 hrs by SRB assay. To be noted: MIA PaCa-2, 72 h. Format: functional, cell-based.
Data set [10] relates to HCT-116. The note with it: Homo sapiens, 0.2 uM.
Description: Downregulation of TOP1 expression in human HCT116 cells at 0.2 uM after 24 hrs by Western blot analysis
The species entered for data set [11] is Mus musculus. To be noted: 28 mg/kg.
Description: In vivo inhibition of HSP90 in mouse xenografted with human Capan1 cells assessed as increase in HSP70 protein expression at 28 mg/kg, iv for every 2 days measured at 2 hrs post last dose by Western blot analysis
Data set [12] deals with A549. Put plainly: Antiproliferative activity against human A549 cells assessed as reduction in cell viability after 72 hrs by SRB assay. Format: functional, cell-based. The note with it: A549, 72 h.
The subject of data set [13] is CAPAN-1. In words: Antitumor activity against human Capan1 cells xenografted in mouse assessed as reduction in tumor volume at 28 mg/kg, iv for every 2 days and measured twice per week by microcaliper method relative to control. Format: functional. For orientation: In xenograft studies the graft and the host belong to different species.
Data set [14] relates to HCT-116. In words: Antitumor activity against human HCT116 cells xenografted in mouse assessed as reduction in tumor volume at 50 mg/kg, iv for 5 consecutive days per week and measured every 3 to 4 days up to 14 days by microcaliper analysis relative to control. Format: functional.
The subject of data set [15] is CAPAN-1. The note with it: Homo sapiens, 28 mg/kg.
Description: Antitumor activity against human Capan1 cells xenografted in mouse assessed as reduction in tumor weight at 28 mg/kg, iv for every 2 days and measured twice per week by caliper method
The species entered for data set [16] is Mus musculus. To be noted: 28 mg/kg. This is another data set of the same source.
Description: In vivo inhibition of HSP90 in mouse xenografted with human Capan1 cells assessed as decrease in AKT protein expression at 28 mg/kg, iv for every 2 days measured at 2 hrs post last dose by Western blot analysis
Data set [17] deals with L02. In words: Cytotoxicity agains human HL7702 cells assessed as reduction in cell viability after 72 hrs by SRB assay. To be noted: L02, 72 h. Format: cell-based.
The test system of data set [18] is HCT-116. Put plainly: Downregulation of TOP1 expression in human HCT116 cells at 0.04 uM after 24 hrs by Western blot analysis. Format: functional, cell-based. On the technique in general: A western blot detects proteins with antibodies after separation by electrophoresis.
A short description of data set [19]: Drug uptake in human A549 cells assessed as blue shift in absorption spectrum at 5 uM by UV-visible absorption spectral analysis. Format: ADME, cell-based. To be noted: a549, 5 µM.
The subject of data set [20] is A549. Put plainly: Induction of cell cycle arrest in human A549 cells at 3 to 10 nM after 24 hrs by RNase A/PI-staining based flow cytometric analysis. Format: functional.
Data set [21] is described as follows: Drug uptake in human A549 cells assessed as maximum emission peaks at 430 nm at 5 uM by fluorescence emission spectral analysis. Format: ADME, cell-based. The note with it: a549, 5 µM.
Data set [22] relates to CAPAN-1. Put plainly: Induction of cell cycle arrest in human Capan1 cells at 3 nM after 24 hrs by RNase A/PI-staining based flow cytometric analysis. Format: functional.
In data set [23] the test system is A549. In words: Downregulation of TOP1 expression in human A549 cells at 0.04 uM after 24 hrs by Western blot analysis. Format: functional, cell-based.
A short description of data set [24]: Drug uptake in human A549 cells assessed as blue fluorescence at 5 uM after 12 hrs by confocal laser scanning microscopic analysis. Format: ADME, cell-based. To be noted: a549, 12 h.
Data set [25] deals with HCT-116. Put plainly: Induction of cell cycle arrest in human HCT116 cells at 3 nM after 24 hrs by RNase A/PI-staining based flow cytometric analysis. Format: functional.

SMILES strings stand for the structures. Activity calls are given as the source filed them.

Consider `CCc1c2c(nc3ccc(OC(=O)N4CCC(NC(=O)CNc5cc(-n6nc(C(F)(F)F)c7c6CC(C)(C)CC7=O)ccc5C(N)=O)CC4)cc13)-c1cc3c(c(=O)n1C2)COC(=O)[C@]3(O)CC`, for which the half-life at 50 µM in [1] and in data set [2] was greater than 24 h in each case. Also, the half-life at 25 µM in [3] and in [4] was greater than 24 h throughout. In data set [5], this molecule came in with an IC50 of 1.26 µM.
On to `CCNC(=O)c1noc(-c2cc(C(C)C)c(O)cc2O)c1-c1ccc(CN2CCOCC2)cc1` [LUMINESPIB], for which the inhibition result in [6], in [10], in data set [11], in [15] and in data set [16] was “Active” each time. For the same molecule, the IC50 in data set [7] was 0.121 µM; in data set [8], 0.657 µM; in [9], 0.038 µM; in data set [12] it was 0.039 µM; in data set [17] it was 1.36 µM. Further, the T/C is given as 57.03% in data set [13] and 49.9% in data set [14].
As to `CCc1c2c(nc3ccc(O)cc13)-c1cc3c(c(=O)n1C2)COC(=O)[C@]3(O)CC` [7-ETHYL-10-HYDROXYCAMPTOTHECIN], the inhibition result in data set [18] and in [23] was “Active” throughout. Moreover, the Drug uptake result in data set [19], in data set [21] and in data set [24] was “Active” each time. The result in data set [20], in data set [22] and in data set [25] was Active. Further, the IC50 in data set [7] came out at 0.004 µM; in data set [8] it was 0.008 µM; in data set [9], 0.013 µM; in [12], 0.011 µM; in data set [17], 0.018 µM.
On to `CCc1c2c(nc3ccc(O)cc13)-c1cc3c(c(=O)n1C2)COC(=O)[C@@]3(CC)OC(=O)CCNC(=O)CNc1cc(-n2nc(C(F)(F)F)c3c2CC(C)(C)CC3=O)ccc1C(N)=O`, for which the half-life at 50 µM in data set [1] was greater than 24 h; in [2], 12 h. Moreover, the half-life at 25 µM is greater than 24 h in data set [3] and 17 h in [4]. Besides, the midpoint of inhibition in data set [5], the IC50, lay at 1.7 µM.

A word on the half-life: it is the time needed for the level to fall by half in the phase considered. One may read the IC50 as the concentration at which inhibition is half-maximal. The T/C is the ratio of treated to control.
